Source: patent US20240148707A1, “MODULATION OF DRUG-DRUG INTERACTIONS OF VADADUSTAT” (Akebia Therapeutics, Inc., priority 2021, published 2024)
Read-outs that look alike come from different tables or passages of the source.

Experiments:
normal rat = assay: Blood erythropoietin concentration increasing action; assay type: in vivo; details: single oral administration
normal rats = assay: Hemoglobin concentration and red blood cell count after repeated dosing; assay type: in vivo, rat; details: repeated oral administration for 14 days
[1] = [14C]-labeled Compound 1 metabolism and excretion study in healthy adult males; assay type: in vivo, human
From the text: The urinary excretion rate of this drug and acyl glucuronide is less than 1% of the total radioactivity.

[2] = test system: UGT1A1, UGT1A7, UGT1A8 and UGT1A9; assay: UGT isoforms generating the O-glucuronide (in vitro); assay type: in vitro ADME, human
CYP2C8 = molecular target: T1, CYP2C8 (Homo sapiens, UniProt P10632); assay: Enzyme inhibition (in vitro); assay type: in vitro ADME
T1 sequence (P10632 1-490): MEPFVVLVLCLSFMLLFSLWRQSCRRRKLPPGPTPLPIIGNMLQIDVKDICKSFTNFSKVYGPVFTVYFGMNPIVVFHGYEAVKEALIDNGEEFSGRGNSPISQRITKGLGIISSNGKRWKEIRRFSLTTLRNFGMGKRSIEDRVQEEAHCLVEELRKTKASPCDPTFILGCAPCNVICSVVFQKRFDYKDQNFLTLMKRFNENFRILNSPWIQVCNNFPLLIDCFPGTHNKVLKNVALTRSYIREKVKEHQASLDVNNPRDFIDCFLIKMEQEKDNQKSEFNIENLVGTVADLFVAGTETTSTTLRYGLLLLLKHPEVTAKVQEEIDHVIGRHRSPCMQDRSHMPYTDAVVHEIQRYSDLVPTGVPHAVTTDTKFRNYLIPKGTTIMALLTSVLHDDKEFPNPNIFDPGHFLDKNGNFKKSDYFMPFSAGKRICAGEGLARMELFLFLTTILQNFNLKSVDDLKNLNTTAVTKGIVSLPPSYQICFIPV

CYP2C9 = CYP2C9 (Homo sapiens, UniProt P11712); assay: Enzyme inhibition (in vitro); assay type: in vitro ADME
CYP2C9, sequence (P11712 whole entry): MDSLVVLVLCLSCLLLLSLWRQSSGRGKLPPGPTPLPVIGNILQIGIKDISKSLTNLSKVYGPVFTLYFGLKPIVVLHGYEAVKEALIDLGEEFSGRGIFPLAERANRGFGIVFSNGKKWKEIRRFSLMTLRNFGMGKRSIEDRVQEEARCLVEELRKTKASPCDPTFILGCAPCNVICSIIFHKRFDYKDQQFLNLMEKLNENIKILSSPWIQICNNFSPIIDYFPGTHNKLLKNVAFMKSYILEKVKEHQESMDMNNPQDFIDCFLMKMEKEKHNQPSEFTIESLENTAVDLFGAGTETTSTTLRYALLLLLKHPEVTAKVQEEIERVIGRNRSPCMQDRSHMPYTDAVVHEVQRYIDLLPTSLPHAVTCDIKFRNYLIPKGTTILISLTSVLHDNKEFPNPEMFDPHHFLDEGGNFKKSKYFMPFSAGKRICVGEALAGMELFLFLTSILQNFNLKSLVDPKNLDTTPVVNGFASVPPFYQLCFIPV

UGT1A1 = molecular target: T2, UGT1A1 (Homo sapiens, UniProt P22309); assay: Enzyme inhibition (in vitro); assay type: in vitro ADME
T2 sequence (P22309 26-533): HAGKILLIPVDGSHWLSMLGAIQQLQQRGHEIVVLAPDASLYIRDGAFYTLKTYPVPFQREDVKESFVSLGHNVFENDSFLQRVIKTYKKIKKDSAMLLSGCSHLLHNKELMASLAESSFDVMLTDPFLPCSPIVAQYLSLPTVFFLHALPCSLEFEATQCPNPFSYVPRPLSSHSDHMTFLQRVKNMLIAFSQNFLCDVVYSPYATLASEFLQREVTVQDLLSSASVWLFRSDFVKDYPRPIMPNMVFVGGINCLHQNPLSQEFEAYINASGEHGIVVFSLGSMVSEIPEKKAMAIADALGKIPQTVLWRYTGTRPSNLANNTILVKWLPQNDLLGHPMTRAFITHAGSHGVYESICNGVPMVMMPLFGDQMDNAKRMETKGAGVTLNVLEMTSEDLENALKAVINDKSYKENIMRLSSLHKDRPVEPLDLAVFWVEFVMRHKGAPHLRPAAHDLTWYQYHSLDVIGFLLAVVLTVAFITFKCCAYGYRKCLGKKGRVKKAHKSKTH

[3] = Phase III clinical trial in patients with hemodialysis anemia; assay type: in vivo, human
Experimental: The incidence of adverse reactions when this drug was administered up to 24 weeks was 8.3% (2/24 cases).

[4] = Phase I drug-drug interaction study with cyclosporine (Part 1, Arm 1); assay type: in vivo, human; details: for AUC(0-inf) / AUC(0-t) / Cmax: both sexes, human, plasma, fasted
Experimental: A phase I, open-label, 2-part study was conducted in healthy male and female subjects to evaluate the potential for interaction of cyclosporine (Part 1, Arm 1), probenecid (Part 1, Arm 2), and rifampin (Part 2) with vadadustat.
Subjects were randomized in a 1:1 ratio to 1 of 2 dosing sequences (A:B or B:A) to receive vadadustat 300 mg alone and vadadustat 300 mg in combination with oral cyclosporine 500 mg in a crossover design. Study drugs were administered in the morning after at least a 10-hour overnight fast. Subjects remained fasted for at least 4 hours post-dose. • Treatment A: a single oral dose of vadadustat (300 mg) administered as 2×150 mg tablets. • Treatment B: a single oral dose of vadadustat (300 mg) administered as 2×150 mg tablets co-administered with a single oral dose of cyclosporine (500 mg) administered as 5×100 mg capsules.
On the morning of Day 1, subjects received the first treatment (A or B). Following a 7-day washout, subjects crossed over to Period 2 to receive the second treatment of the dosing sequence (A or B) on Day 8.
On each dosing day (Day 1 and Day 8) blood samples for PK analysis were collected up to 48 hours post-dose. Subjects were discharged from the clinical research unit (CRU) on the morning of Day 10, after the final 48-hour post-dose PK sample had been collected. A follow-up phone call was conducted 30 days±2 days after the final dose.

O=C(O)CNC(=O)c1ncc(-c2cccc(Cl)c2)cc1O [Compound 1, {[5-(3-chlorophenyl)-3-hydroxypyridine-2-carbonyl]amino}acetic acid]
blood erythropoietin levels (normal rat): elevated blood erythropoietin levels
hemoglobin concentration (normal rats): increasing
red blood cell count (normal rats): increasing
share of the total radioactivity (AUC0-∞) in plasma ([1]; healthy adult male (6), single oral 650 mg [14C]-labeled Compound 1): 75%
total radioactivity administered recovered in urine ([1]; single dose 650 mg [14C]-labeled, by 72 hours after administration): 58.9%
UGT isoforms involved in the generation of the O-glucuronide [2]: UGT1A1, UGT1A7, UGT1A8 and UGT1A9
inhibitory effect on CYP2C8 (CYP2C8): inhibitory effect
inhibitory effect on CYP2C9 (CYP2C9): inhibitory effect
inhibitory effect on UGT1A1 (UGT1A1): inhibitory effect
incidence of adverse reactions ([3]; administered up to 24 weeks (2/24 cases)): 8.3%
hemoglobin level before administration ([3]; baseline, 23 people, mean ± standard deviation): 9.30 ± 0.67
AUC(0-inf) ([4]; vadadustat 300 mg + cyclosporine 500 mg, single oral doses, read-out: AUCinf, geometric LSM, Treatment V + C): 293 µg·h/mL
AUC(0-t) ([4]; vadadustat 300 mg + cyclosporine 500 mg, single oral doses, read-out: AUClast, geometric LSM, Treatment V + C): 292 µg·h/mL
Cmax ([4]; vadadustat 300 mg + cyclosporine 500 mg, single oral doses, read-out: Cmax, geometric LSM, Treatment V + C): 37100 ng/mL
AUC(0-inf) ([4]; vadadustat 300 mg alone, single oral dose, read-out: AUCinf, geometric LSM, Treatment V): 251 µg·h/mL
AUC(0-t) ([4]; vadadustat 300 mg alone, single oral dose, read-out: AUClast, geometric LSM, Treatment V): 249 µg·h/mL
Cmax ([4]; vadadustat 300 mg alone, single oral dose, read-out: Cmax, geometric LSM, Treatment V): 45400 ng/mL
tolerability ([4]; during treatment with cyclosporine, healthy subjects): tolerated
changes in the Cmax and AUC values ([4]; vadadustat in combination with cyclosporine): no clinically relevant changes
